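GI50 marks 50% less growth. TGI: total growth inhibition.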
Key:
Assay in all cases: NCI tumour cell line growth inhibition, 384-well format
[1] = test system: SF-295 CNS
[2] = test system: PC-3 prostate
[3] = test system: HOP-62 NSCLC
[4] = test system: NCI-H522 lung
[5] = test system: SK-OV-3 ovarian
[6] = test system: OVCAR-4 ovarian
[7] = test system: OVCAR-3 ovarian
[8] = test system: HCC-2998 colon
[9] = test system: HOP-92 NSCLC
[10] = test system: U251 glioblastoma
[11] = test system: NCI-H226 lung
[12] = test system: MDA-MB-468 breast
[13] = test system: K-562 leukemia
[14] = test system: KM12 colon
[15] = test system: SK-MEL-28 melanoma
[16] = test system: SNB-75 CNS
[17] = test system: UO-31 renal
[18] = test system: NCI-H23 lung
[19] = test system: RPMI-8226 leukemia
[20] = test system: SF-268 CNS
[21] = test system: CAKI-1 renal
[22] = test system: COLO 205 colon
[23] = test system: MDA-MB-231 breast
[24] = test system: NCI-H460 NSCLC
[25] = test system: SR leukemia
[26] = test system: A549 NSCLC
[27] = test system: TK-10 renal
[28] = test system: BT-549 breast
[29] = test system: HT29 colon
[30] = test system: NCI/ADR-RES ovarian
[31] = test system: HS 578T breast
[32] = test system: DU-145 prostate
[33] = test system: SNB-19 CNS
[34] = test system: MALME-3M melanoma
[35] = test system: OVCAR-8 ovarian
[36] = test system: MOLT-4 leukemia
[37] = test system: SF-539 CNS
[38] = test system: UACC-257 melanoma
[39] = test system: RXF 393 renal
[40] = test system: IGROV1 ovarian
[41] = test system: ACHN renal
[42] = test system: UACC-62 melanoma
[43] = test system: HCT-116 colon
[44] = test system: MCF7 breast
[45] = test system: SW-620 colon
[46] = test system: HCT-15 colon
[47] = test system: SK-MEL-5 melanoma
[48] = test system: T-47D breast
[49] = test system: M14 melanoma
[50] = test system: HL-60(TB) leukemia
[51] = test system: NCI-H322M lung
[52] = test system: EKVX NSCLC
[53] = test system: MDA-MB-435 melanoma
[54] = test system: CCRF-CEM leukemia
[55] = test system: 786-0 renal
[56] = test system: LOX IMVI melanoma
[57] = test system: SN12C renal
[58] = test system: A498 renal

## Cc1ccccc1C(C(=O)NC1CCCCC1)N(C(=O)CNc1ccc(C#N)cc1)c1cccc(F)c1 (stereo unspecified)
[1]
  GI50: 15 µM
  TGI: 47.1 µM
[2]
  GI50: 7.84 µM
  TGI: 56.1 µM
[3]
  GI50: 6.88 µM
  TGI: 45.3 µM
[4]
  GI50: 7.86 µM
  TGI: 67.7 µM
[5]
  GI50: 8.22 µM
  TGI: 40.4 µM
[6]
  GI50: 5.82 µM
  TGI: 31.5 µM
[7]
  GI50: 3.58 µM
  TGI: 35.3 µM
[8]
  GI50: 1.48 µM
  TGI: 11.2 µM
[9]
  GI50: 3.45 µM
  TGI: 17 µM
[10]
  GI50: 15.7 µM
  TGI: > 100 µM
[11]
  GI50: 4.84 µM
  TGI: 27.2 µM
[12]
  GI50: 51.7 µM
  TGI: > 100 µM
[13]
  GI50: 3.25 µM
  TGI: > 100 µM
[14]
  GI50: 7.76 µM
  TGI: 89.6 µM
[15]
  GI50: 2.49 µM
  TGI: 11.6 µM
[16]
  GI50: 2.61 µM
  TGI: 16.2 µM
[17]
  GI50: 57.3 µM
  TGI: > 100 µM
[18]
  GI50: 4.65 µM
  TGI: 24.4 µM
[19]
  GI50: 8.12 µM
  TGI: > 100 µM
[20]
  GI50: 7.32 µM
  TGI: 55.9 µM
[21]
  GI50: 4.93 µM
  TGI: 22.7 µM
[22]
  GI50: 3.04 µM
  TGI: 20.7 µM
[23]
  GI50: 5.23 µM
  TGI: 29.4 µM
[24]
  GI50: 3.86 µM
  TGI: > 100 µM
[25]
  GI50: 1.77 µM
  TGI: 4.61 µM
[26]
  GI50: 25 µM
  TGI: > 100 µM
[27]
  GI50: 19 µM
  TGI: > 100 µM
[28]
  GI50: 7.62 µM
  TGI: 52.7 µM
[29]
  GI50: 5.56 µM
  TGI: > 100 µM
[30]
  GI50: 46.9 µM
  TGI: > 100 µM
[31]
  GI50: 3.36 µM
  TGI: 20.1 µM
[32]
  GI50: 12.6 µM
  TGI: > 100 µM
[33]
  GI50: 3.16 µM
  TGI: 16.6 µM
[34]
  GI50: 0.713 µM
  TGI: 2.59 µM
[35]
  GI50: 4.15 µM
  TGI: 58.3 µM
[36]
  GI50: > 100 µM
  TGI: > 100 µM
[37]
  GI50: 5.6 µM
  TGI: 21.4 µM
[38]
  GI50: 3.77 µM
  TGI: 18.5 µM
[39]
  GI50: 4.41 µM
  TGI: 24.7 µM
[40]
  GI50: 8.13 µM
  TGI: 88.7 µM
[41]
  GI50: 11.6 µM
  TGI: > 100 µM
[42]
  GI50: 1.58 µM
  TGI: 4.91 µM
[43]
  GI50: 4.46 µM
  TGI: 33.9 µM
[44]
  GI50: 14.6 µM
  TGI: > 100 µM
[45]
  GI50: 3.4 µM
  TGI: > 100 µM
[46]
  GI50: 65.1 µM
  TGI: > 100 µM
[47]
  GI50: 3.12 µM
  TGI: 17.8 µM
[48]
  GI50: 7.89 µM
  TGI: > 100 µM
[49]
  GI50: 2.56 µM
  TGI: 13.1 µM
[50]
  GI50: 1.15 µM
  TGI: 3.91 µM
[51]
  GI50: 13.4 µM
  TGI: > 100 µM
[52]
  GI50: 11.6 µM
  TGI: > 100 µM
[53]
  GI50: 8.14 µM
  TGI: > 100 µM
[54]
  GI50: 98.4 µM
  TGI: > 100 µM
[55]
  GI50: 3.83 µM
  TGI: 20.7 µM
[56]
  GI50: 24.7 µM
  TGI: > 100 µM
[57]
  GI50: 4.43 µM
  TGI: 66.8 µM
[58]
  GI50: 6.17 µM
  TGI: 27.2 µM

— PubChem BioAssay (NCI)
